Target: Cath X (Homo sapiens, UniProt Q9UBR2)
Assay: in vitro activity assay (fluorescence, substrate cleavage) with Cath X
Assay type: biochemical
Details: measurement performed at pH 5.5
Method: […] The substrates were solved in DMSO and added to enzyme solution with a final concentration of 50 μM.
Fluorescence was measured with an Tecan SAFIRE II spectrometer (excitation wavelength: 336 nm; emission wavelength: 490 nm; excitation band: 10.0 nm; emission band: 10.0 nm; amplification (manual): 90).

Chain of Cath X (Q9UBR2 62-303): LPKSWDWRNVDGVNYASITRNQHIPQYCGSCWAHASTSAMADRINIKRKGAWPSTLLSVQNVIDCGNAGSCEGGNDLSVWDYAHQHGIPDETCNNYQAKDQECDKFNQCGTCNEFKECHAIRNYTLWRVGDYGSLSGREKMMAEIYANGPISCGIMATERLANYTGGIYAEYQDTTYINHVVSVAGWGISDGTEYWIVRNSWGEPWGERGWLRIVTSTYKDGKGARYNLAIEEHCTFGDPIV

With `CN(C)c1ccc2c(c1)Oc1cc(N(C)C)ccc1C21OC(=O)c2cc(C(=O)NCC[C@H](NC(=O)[C@H](CC3CCCCC3)NC(=O)N3CCOCC3)C(=O)NCCNC(=O)c3ccc(-c4c5ccc(=O)cc-5oc5cc(O)ccc45)c(C(=O)O)c3)ccc21` [Example 10] the Kcat was 287.4 s⁻¹ and the Vmax was 7997 nmol/s.

From patent US8771644B2, “Imaging probes” (Sanofi, priority 2007, dated 2014)
